Results as given in patent US20230016424A1, “HYBRID AMIDE DERIVATIVES OF AMPHOTERICIN B” (The Board of Trustees of the University of Illinois, priority 2019, published 2023).
Converted amounts (≈) assume the structure as drawn.

Key:
[1] = isothermal titration calorimetry (ITC) sterol binding; conditions: for Cholesterol binding by ITC: within the detection limits of ITC
Text: (§1) This key discovery opened a path to the rational development of a non-toxic AmB variant. To probe its predicted role in sterol binding, the hydroxyl group was synthetically deleted at the C2′ position on the mycosamine appendage. […] Consistent with the sterol sponge model, this derivative retained good activity against yeast but, most importantly, was nontoxic to human red blood cells and primary (hREC) (FIG. 2B).
(§2) A practical 11-step synthesis of C2′epiAmB using a frontier site-selective acylation method was developed (FIG. 4). Wilcock, B. C. et al., Nat Chem 2012, 4 (12), 996-1003; Uno, B. E. A synthesis enabled understanding of Amphotericin B leading to derivatives with improved therapeutic indices. University of Illinois at Urbana-Champaign, 2014. The sterol binding and cell killing activities was then determined.

[2] = system: human red blood cells and primary hREC; experiment: Toxicity to human cells; format: cell-based
Text: as §1, §2

C. albicans SN250 = experiment: MIC; format: cell-based, Candida albicans
[3] = system: 40 Aspergillus clinical isolates, including azole-resistant A. fumigatus, A. flavus, and A. terreus; experiment: Antifungal testing against 40 Aspergillus clinical isolates (Fungus Testing Laboratory); format: cell-based
[4] = system: A. fumigatus (AF293, A1163, ATC204305, AF91); format: cell-based
rats = experiment: IV toxicity in rats (BUN, ALT/AST, mortality, Cmax); format: in vivo; conditions: IV 2, 10, and 17.5 mg/kg (the highest dose tested)
Method: >100 mg of C2′epiAmB was prepared, formulated it as the corresponding deoxycholate complex, and evaluated this derivative head-to-head with AmB-deoxycholate for toxicity and efficacy in animal models.

[5] = system: C. albicans SN250, C. albicans, C. krusei, C. glabrata, C. tropicalis, A. fumigatus 91, 1163, 1100; experiment: Average MIC over the tested strains; format: cell-based
C. albicans = experiment: Murine model of invasive candidiasis, neutropenic ICR/Swiss mice; format: in vivo; conditions: single IP injection, deoxycholate complex, 16 mg/kg dose
Text: Andes, D. et al., Antimicrobial agents and chemotherapy 2001, 45 (3), 922-6. In fact, the PD parameter that best correlates with outcome is Cmax-/MIC. The same was subsequently observed in a pulmonary model of invasive aspergillosis. Wiederhold, N. P. et al., Antimicrobial agents and chemotherapy 2006, 50 (2), 469-73.

[6] = UV-Vis sterol binding assay
Method: However, an alternative method was developed for reproducible formation of homogenous AmB and C2′epiAmB sterol sponge aggregates in vitro. Using these preparations, a quantitative UV-Vis and Principle Component (PCA) based assay for determining the apparent KDs for the binding of AmB and C2′epiAmB to ergosterol and cholesterol (FIGS. 5A-5D) was developed.
UV-Vis Binding Assay (FIG. 21A): The protocol for the sterol binding assay (UV-Vis) was developed in our lab. Compounds were dissolved in DMSO at a final concentration of 1 mM. Sterol were first dissolved in CHCl3 (>200 mM) and then diluted to 1 mM concentration with DMSO. To synthesize the complex 1 ul of compound solution was taken in a clean eppendorf tube (2 ml) and sterol solution (volume depends on the stoichiometry) was added to it and the volume was made up to 20 ul with DMSO. 0.98 ml of PBS buffer was added to the Eppendorf tube and mixed properly. The absorbance of the solution was measured after 30 mins of incubation.

human erythrocytes = experiment: MHC hemolysis assay; format: cell-based; conditions: hemolysis, human erythrocytes, 37° C. 2 hours
Method: MHC (FIG. 21B): The protocol for the hemolysis assay was adapted from the report of Paquet and coworkers (Chem. Eur. J. 2008, 14, 2465-2481). Whole human blood (sodium heparin) was purchased from Bioreclamation LLC (Westbury, N.Y.) and stored at 4° C. and used within two days of receipt. To a 2.0 mL eppendorf tube, 1 mL of whole human blood was added and centrifuged at 10,000 g for 2 minutes. The supernatant was removed and the erythrocyte pellet was washed with 1 mL of sterile saline and centrifuged at 10,000 g for 2 minutes. The saline wash was repeated for a total of three washes. The erythrocyte pellet was suspended in 1 mL of RBC buffer (10 mM NaH2PO4, 150 mM NaCl, 1 mM MgCl2, pH 7.4) to form the erythrocyte stock suspension.
Compounds were prepared as >15 mM stock solutions in DMSO and serially diluted to the following concentrations with DMSO: 7689, 5126, 2563, 2050, 1538, 1025, 769, 513, 384, 256, 205, 154, 103, 77, 51, 26 μM. To a 0.2 mL PCR tube, 24 μL of RBC buffer and 1 μL of compound stock solution were added, which gave final concentrations of […]. Positive and negative controls were prepared by adding 1 μL of DMSO to MilliQ water or RBC buffer, respectively to 0.2 mL PCR tube. To each PCR tube, 0.63 μL of the erythrocyte stock suspension was added and mixed by inversion. The samples were incubated at 37° C. for 2 hours. The samples were mixed by inversion and centrifuged at 10,000 g for 2 minutes. 15 μL of the supernatant from each sample was added to a 384-well place. Absorbances were read at 540 nm using a Biotek H1 Synergy Hybrid Reader (Wanooski, Vt.). Experiments were performed in triplicate and the reported MHC represents an average of three experiments.

Row | SMILES | Ergosterol binding by ITC [1] | Cholesterol binding by ITC [1] | Toxicity to human cells [2] | MIC C. albicans SN250 (C. albicans SN250) | Times less potent than AmB [3] | Times less potent than AmB [4] | BUN, ALT/AST and mortality, rats (rats) | Average MIC ([5]; Table 13, C16 amides of C2’epiAmB) | MIC ([5]; average over the 8 listed strains) | Fungal burden, murine invasive candidiasis (C. albicans) | Cholesterol Binding [6] | MHC (human erythrocytes)
1 | CC1C=CC=CC=CC=CC=CC=CC=CC(OC2CC(N)C(O)C(C)O2)CC2OC(O)(CC(O)CC(O)C(O)CCC(O)CC(O)CC(=O)OC(C)C(C)C1O)CC(O)C2C(=O)O (stereo not drawn) [C2′deOAmB, reference compound] | bind ergosterol | not cholesterol | nontoxic | – | – | – | – | – | – | – | – | –
2 | C[C@@H]1[C@H](O)[C@@H](C)/C=C/C=C/C=C/C=C/C=C/C=C/C=C/[C@H](O[C@@H]2O[C@H](C)[C@@H](O)[C@H](N)[C@H]2O)C[C@@H]2O[C@](O)(C[C@@H](O)C[C@@H](O)[C@H](O)CC[C@@H](O)C[C@@H](O)CC(=O)O[C@H]1C)C[C@H](O)[C@H]2C(=O)O [C2′epiAmB, C2′epi-Amphotericin B] | bind ergosterol | not (detectably) cholesterol | not human cells | 0.5 µM (≈ 0.462 µg/mL) | 2-16 times | > 32 times | no elevations in BUN or ALT/AST and no mortality | 9030 µM | >6.844 µM | outstanding reductions in fungal burden | No | >500 µM
